In brackets after ≈: the same amount, converted by molar mass. Like-named read-outs stand apart in the source and are kept apart here.
Legend:
[1] = system: Vibrio cholerae SG24 (1); assay: Broth microdilution MIC/MBC; type: cell-based; details: for MBC / MIC: Vibrio cholerae; for MBC/MIC: Vibrio cholerae SG24 (1); for MIC: 24 h
Experimental: (§1) A total of six bacterial strains were tested for their susceptibility to compounds and these strains were taken from our laboratory collection (kindly provided by Dr. T. Ramamurthy, NICED, Kolkata). Among the clinical strains of Vibrio cholerae used in this study, strains NB2 and SG24(1) belonged to O1 and O139 serotypes, respectively. […] The bacterial strains were maintained on agar slant at 4 °C and subcultured on a fresh appropriate agar plates 24 h prior to any antibacterial test. The Mueller Hinton Agar (MHA) was used for the activation of bacteria. The Mueller Hinton Broth (MHB) and nutrient agar (Hi-Media) were used for the MIC and MBC determinations respectively.
(§2) MIC values were determined by a broth micro-dilution method as described earlier [14] with slight modifications. […] Then, 100 μl of each concentration was added in each well (96-well microplate) containing 95 μl of MHB and 5 μl of inoculums (at 1.5 × 10^6 CFU/ml) for final concentrations varying from 0.25–512 μg/ml. […] The plates were covered with sterile lids, then the contents of each well were mixed using a shaker and incubated at 35 °C for 24 h. […] MIC values were defined as the lowest sample concentrations that prevented this change in color indicating an inhibition of visible growth. Viable microorganisms reduced the yellow dye to a pink color. […] The lowest concentrations that yielded no growth after this subculturing were taken as the MBC values [15]. All the analyses were carried out in triplicate.

[2] = system: Vibrio cholerae CO6; assay: Broth microdilution MIC/MBC; type: cell-based; details: for MBC / MBC/MIC: CO6; for MIC: CO6, 24 h
Experimental: as §1, §2

[3] = system: Vibrio cholerae NB2; assay: Broth microdilution MIC/MBC; type: cell-based; details: for MBC / MBC/MIC: NB2
Experimental: as §1, §2

[4] = system: Vibrio cholerae PC2; assay: Broth microdilution MIC/MBC; type: cell-based; details: for MBC / MBC/MIC: PC2
Experimental: as §1, §2

[5] = system: Shigella flexneri SDINT; assay: microbe, parasite or virus in culture; type: cell-based
Experimental: as §1, §2

[6] = system: Staphylococcus aureus ATCC 25923; assay: microbe, parasite or virus in culture; type: cell-based; details: for MBC / MIC: Staphylococcus aureus; for MBC: ATCC25923; for MIC: ATCC25923, 24 h
Experimental: as §1, §2

[7] = system: Vibrio cholerae, Shigella flexneri and Staphylococcus aureus; assay: Broth microdilution MIC/MBC, summary over all six tested strains; type: cell-based; details: for MIC: read-out: antibacterial activity class (pure compounds)
Experimental: as §1, §2

[8] = DPPH free radical scavenging assay; details: 30 min, room temperature, 517 nm
Experimental: The free radical scavenging activity of extracts as well as most of their isolated compounds was performed according to Brand-Williams et al. with slight modifications. Briefly, different concentrations (10 to 2000 μg/ml) of extracts/compounds and vitamin C (positive control) were thoroughly mixed with 3 ml of methanolic DPPH solution (20 mg/l) in test-tubes and the resulting solution was kept standing for 30 min at room temperature before the optical density (OD) was measured at 517 nm. The percentage radical scavenging activity was calculated from the following formula: % scavenging [DPPH] = [(A0–A1)/A0] × 100 [16]. Where A0 was the absorbance of the negative control (methanolic DPPH solution) and A1 was the absorbance in the presence of the samples. IC50 value was determined from the graph obtained using standard vitamin C by using the “y = mx + c” formula from the slope of the graph. All the analyses were carried out in triplicate.

[9] = Gallic acid equivalent antioxidant capacity (GAEAC) assay; details: ABTS/laccase, 420 nm, 240 s
Experimental: The GAEAC test was done as previously described [17] with slight modifications. In a quartz cuvette, to 950 μl acetate buffer (pH =5.0, 100 mM), the following were added: 20 μl laccase (1 mM stock solution), 20 μl test sample, 10 μl ABTS (2,2’-azinobis(3-ethylbenzothiazoline-6-sulfonic acid) (74 mM stock solution). The laccase were purified from Sclerotinia sclerotiorum according to the protocol described [18]. The sample concentrations in the assay mixture were 800, 400, 200, 100, 10 μg/ml for the extracts and 200, 100, 50, 25, 125.5 μg/ml for the isolated compounds. The content of the generated ABTS^●+ radical was measured at 420 nm after 240 s reaction time and was converted to gallic acid equivalents by the use of a calibration curve (Pearson’s correlation coefficient: r = 0.996) constructed with 0, 4, 10, 14, 28, 56, 84 μM gallic acid standards rather than Trolox. Experiments were done in triplicate.

SMILES	MBC [1] [µg/mL]	MIC [1] [µg/mL]	MBC [2] [µg/mL]	MBC/MIC [2]	MIC [2] [µg/mL]	MBC ([3]; Vibrio cholerae) [µg/mL]	MIC ([3]; Vibrio cholerae, NB2, 24 h) [µg/mL]	MBC ([4]; Vibrio cholerae) [µg/mL]	MIC ([4]; Vibrio cholerae, PC2, 24 h) [µg/mL]	MBC ([5]; Shigella flexneri) [µg/mL]	MIC ([5]; Shigella flexneri, 24 h) [µg/mL]	MBC/MIC [6]	MBC [6] [µg/mL]	MIC [6] [µg/mL]	MBC/MIC ([3]; Vibrio cholerae)	MBC/MIC ([4]; Vibrio cholerae)	MBC/MIC [5]	MIC [7] [µg/mL]	also measured
CC1(C)S[C@@H]2[C@H](NC(=O)[C@H](N)c3ccccc3)C(=O)N2[C@H]1C(=O)O [Ampicillin, reference compound]	16 (≈ 45.8 µM)	16 (≈ 45.8 µM)	16 (≈ 45.8 µM)	1	16 (≈ 45.8 µM)	> 512	> 512	> 512	> 512	> 512	> 512	1	8 (≈ 22.9 µM)	8 (≈ 22.9 µM)					MBC/MIC [1]: 1; MIC ([3]; Vibrio cholerae NB2, 35 °C, 24 h): not active; MIC ([4]; Vibrio cholerae PC2, 35 °C, 24 h): not active; MIC [5]: not active
COC(=O)C1=CO[C@@H](O)[C@@H]2C(COC(=O)C3=CO[C@@H](O)[C@@H]4C(COC(C)=O)=CC[C@H]34)=CC[C@H]12 [Compound 1, canthiumoside 1]	128 (≈ 277 µM)	64 (≈ 138 µM)	64 (≈ 138 µM)	1	64 (≈ 138 µM)	64 (≈ 138 µM)	64 (≈ 138 µM)	64 (≈ 138 µM)	64 (≈ 138 µM)	64 (≈ 138 µM)	32 (≈ 69.2 µM)	1	32 (≈ 69.2 µM)	32 (≈ 69.2 µM)	1	1	2	10 to 100 (≈ 21.6 to 216 µM)	MBC/MIC [1]: 2; EC50 (concentration scavenging 50% of DPPH radical) [8]: 2.03 µg/mL; GAEAC (gallic acid equivalent antioxidant capacity) [9]: 79.82 µg/mL; GAEAC (gallic acid equivalent antioxidant capacity) ([9]; listed as Canthiumoside 1): 79.82 to 92.35 µg/mL
COC(=O)C1=COC(O)C2C(COC(=O)C3=COC(OC4OC(CO)C(O)C(O)C4O)C4C(COC(C)=O)=CCC34)=CCC12 (stereo not drawn) [Compound 2, canthiumoside 2]	> 256	256 (≈ 410 µM)	256 (≈ 410 µM)	2	128 (≈ 205 µM)	128 (≈ 205 µM)	128 (≈ 205 µM)	256 (≈ 410 µM)	256 (≈ 410 µM)	256 (≈ 410 µM)	128 (≈ 205 µM)	1	64 (≈ 102 µM)	64 (≈ 102 µM)	1	1	2	> 100	
COC(=O)C1=COC(OC2OC(CO)C(O)C(O)C2O)C2C(COC(=O)C3=COC(OC4OC(CO)C(O)C(O)C4O)C4C(COC(C)=O)=CCC34)=CCC12 (stereo not drawn) [Compound 3, canthiumoside 3]		> 256	256 (≈ 325 µM)	2	128 (≈ 163 µM)	256 (≈ 325 µM)	256 (≈ 325 µM)	> 256	256 (≈ 325 µM)	> 256	256 (≈ 325 µM)		> 256	256 (≈ 325 µM)	1			> 100	tested organisms inhibited [7]: 83.33%
COC(=O)C1=COC(OC2OC(CO)C(O)C(O)C2O)C2C(COC(=O)C3=COC(OC4OC(CO)C(O)C(O)C4O)C4C(CO)=CCC34)=CCC12 (stereo not drawn) [Compound 4, canthiumoside 4]																			EC50 (concentration scavenging 50% of DPPH radical) [8]: 178.57 µg/mL; GAEAC (gallic acid equivalent antioxidant capacity) [9]: 22.63 µg/mL
COC(=O)C1=COC(OC2OC(CO)C(O)C(O)C2O)C2C(COC(=O)C3=COC(OC(C)=O)C4C(C)CCC34)=CCC12 (stereo not drawn) [Compound 5a, canthiumoside 5a]	> 256	256 (≈ 419 µM)	256 (≈ 419 µM)	2	128 (≈ 210 µM)	128 (≈ 210 µM)	128 (≈ 210 µM)	256 (≈ 419 µM)	128 (≈ 210 µM)	128 (≈ 210 µM)	128 (≈ 210 µM)	1	128 (≈ 210 µM)	128 (≈ 210 µM)	1	2	1	> 100	
COC(=O)C1=CO[C@@H](O)[C@H]2[C@@H]1CC[C@]2(C)O [Compound 7, linearin]																			MIC (range over the tested bacteria) ([7]; range over all tested strains): 8 to 64 µg/mL
COC(=O)C1=COC(OC2OC(CO)C(O)C(O)C2O)C2C1CCC2(C)O (stereo not drawn) [Compound 8, mussaenoside]	> 256	256 (≈ 656 µM)	256 (≈ 656 µM)	1	256 (≈ 656 µM)	> 256	128 (≈ 328 µM)	256 (≈ 656 µM)	128 (≈ 328 µM)	256 (≈ 656 µM)	128 (≈ 328 µM)	2	128 (≈ 328 µM)	64 (≈ 164 µM)		2	2	> 100	
COC(=O)C1=CO[C@@H](O[C@@H]2O[C@H](CO)[C@@H](O)[C@H](O)[C@H]2O)[C@H]2[C@@H]1[C@H](O)C[C@]2(C)O [Compound 9, shanzhiside methyl ester]	128 (≈ 315 µM)	128 (≈ 315 µM)	> 256		128 (≈ 315 µM)	128 (≈ 315 µM)	128 (≈ 315 µM)	256 (≈ 630 µM)	256 (≈ 630 µM)	256 (≈ 630 µM)	128 (≈ 315 µM)	2	256 (≈ 630 µM)	128 (≈ 315 µM)	1	1	2	> 100	MBC/MIC [1]: 1
COC(=O)C1=CO[C@@H](O)[C@H]2[C@@H]1[C@H](O)C[C@]2(C)O [compound 6]	256 (≈ 1050 µM)	128 (≈ 524 µM)	256 (≈ 1050 µM)		256 (≈ 1050 µM)	256 (≈ 1050 µM)	256 (≈ 1050 µM)	256 (≈ 1050 µM)	128 (≈ 524 µM)	64 (≈ 262 µM)	32 (≈ 131 µM)		64 (≈ 262 µM)	32 (≈ 131 µM)				> 100	
COC(=O)C1=CO[C@@H](O)[C@H]2[C@@H]1CC[C@]2(C)O [compound 7]	64 (≈ 280 µM)	32 (≈ 140 µM)	128 (≈ 561 µM)		64 (≈ 280 µM)	32 (≈ 140 µM)	32 (≈ 140 µM)	32 (≈ 140 µM)	32 (≈ 140 µM)	16 (≈ 70.1 µM)	16 (≈ 70.1 µM)		8 (≈ 35.1 µM)	8 (≈ 35.1 µM)				10 to 100 (≈ 43.8 to 438 µM)	
O=C1O[C@H]([C@@H](O)CO)C(O)=C1O [vitamin C, reference compound]																			EC50 (concentration scavenging 50% of DPPH radical) [8]: 1.74 µg/mL

From paper PMC5217663, “Iridoids from Canthium subcordatum iso-butanol fraction with potent biological activities” (BMC Complementary and Alternative Medicine, 2017)
